# Tests used:
# H1755 cells = assay: Cellular phospho-ERK inhibition assay in H1755 cells; format: cell-based; details: Homo sapiens, NCI-H1755, 2 hours treatment, read-out: H1755 Cell IC50
# In short: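 In Cell Western detection of phospho-ERK1/2 (Thr202/Tyr204) over GAPDH after 2 h compound exposure (66 pM to 10 μM, 9 points, 0.25% DMSO) of A375 cells in DMEM or H1755 cells in RPMI, both with 10% FBS. Percent of control set by DMSO and 10 μM binimetinib; 4-parameter IC50.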
# [1] = tested on: NCI-H1666 (BRAF G466V) cells; assay: Proliferation assay (CellTiter-Glo) in NCI-H1666 cells; format: cell-based; details: Homo sapiens, 3-5 day incubation
# Experimental: The compounds of Example 13, Example 14 and Example 126 were evaluated in a proliferation assay in two mutant BRAF Class III cell lines: NCI-H1666 (BRAF^G466V) and WM3629 cells (BRAF^D594G/NRAS^G12D). NCI-H1666 cells were obtained from the American Type Culture Collection (ATCC, Rockville, MD) and WM3629 cells were obtained from Rockland Immunochemicals (Limerick, PA). Cells were maintained in RPMI growth medium containing 10% FBS.
# Cells were harvested according to standard protocols, counted, and plated onto flat-bottom, 96-well tissue culture plates (Costar #3599) at 2000-5000 cells/well in 100 μL/well of growth medium containing 10% FBS. Cells were incubated at 37° C. with 5% CO2 overnight then treated with inhibitors prepared as a 9-point, 1:3.33 fold dilution series with final compound concentrations ranging from 66 pM-10 μM and a constant DMSO concentration of 0.25%. Control wells contained 0.25% DMSO alone. After a 3-5 day incubation at 37° C., 5% CO2, cell viability was determined by adding 100 μL CellTiter-Glo® Reagent (Promega) to each well and incubated for 15 minutes at room temperature. “Day 0” controls were determined by performing CellTiter-Glo© assay on DMSO control wells at the time of compound treatment (“Day 0” control=0 POC). Luminescence was measured on a Cytation 5 plate reader (BioTek) and values were converted to POC using the following equation:
# [formula] • Where: • Xmax Average DMSO Controls • Xmin Average “Day 0” DMSO Controls • IC50 values were calculated using a 4-parameter fit in XLfit software and are shown in Table A2.
# [2] = MDR1 LLC-PK1 and BCRP MDCKII permeability assay: permeability coefficient (Papp); format: in vitro ADME
# Source text: Final organic concentration in the assay was 1%.
IC50 (H1755 cells) [nM],IC50 [1] [nM],"Papp at 2 h, 1 µM [2] [×10⁻⁶ cm/s]",SMILES
78,240,32,"Cn1cnc2ccc(Nc3c(F)ccc(NS(=O)(=O)N4CC5CC4C5)c3Cl)c(F)c2c1=O [Example 13, N-(2-chloro-4-fluoro-3-((5-fluoro-3-methyl-4-oxo-3,4-dihydroquinazolin-6-yl)amino)phenyl)-2-azabicyclo[2.1.1]hexane-2-sulfonamide]"
21,120,28,"Cn1cnc2ccc(Nc3c(F)ccc(NS(=O)(=O)N4CC[C@@H](F)C4)c3Cl)c(F)c2c1=O [Example 14, (R)-N-(2-chloro-4-fluoro-3-((5-fluoro-3-methyl-4-oxo-3,4-dihydroquinazolin-6-yl)amino)phenyl)-3-fluoropyrrolidine-1-sulfonamide]"

# — patent publication US12303509B2, “Compounds for the treatment of BRAF-associated diseases and disorders” (Pfizer Inc., priority 2020, dated 2025)
